Test results taken from patent US8791264B2 (Purdue Pharma L.P., priority 2006, dated 2014).

Biological target: T1, N-type calcium channel (NTCC) (Homo sapiens, UniProt Q00975)
T1 construct: host or cells: IMR32 cells differentiated with dibutyryl cAMP and bromodeoxyuridine
Experiment: FLIPR calcium mobilization assay for N-type calcium channel
Assay type: cell-based
Conditions: calcium mobilization in vitro assay; differentiated IMR32 cells
Protocol: Unless noted otherwise, cell culture reagents were purchased from Mediatech of Herndon, Md. IMR32 cells (American Type Culture Collection, ATCC, Manassas, Va.) were routinely cultured in growth medium consisting of minimum essential medium containing 10% fetal bovine serum (FBS, Hyclone, Logan, Utah), 100 U/mL penicillin, 100 μg/mL streptomycin, 2 mM L-glutamine, 1 mM sodium pyruvate, and 1× MEM non-essential amino acids. 80-90% confluent flasks of cells were differentiated using the following differentiation medium: Growth medium plus 1 mM dibutyryl cyclic AMP (Sigma, St. Louis, Mo.), and 2.5 μM bromodeoxyuridine (Sigma). Cells were differentiated for 8 days by replacing differentiation medium every 2-3 days.
FLIPR Calcium Mobilization Assay for N-Type Calcium Channel.
One day prior to performing this assay, differentiated IMR32 cells were treated with 1× CellStripper, and seeded on poly-D-lysine-coated 96-well clear-bottom black plates (Becton Dickinson, Franklin Lakes, N.J.) at 200,000 cells/well. On the day of the assay, the cell plates were washed with IMR32 buffer (127 mM NaCl, 1 mM KCl, 2 mM MgCl2, 700 μM NaH2PO4, 5 mM CaCl2, 5 mM NaHCO3, 8 mM HEPES, 10 mM glucose, pH 7.4), then pre-stimulated with KCl and loaded as follows: 0.05 mL of IMR32 buffer, 0.05 mL of each compound tested diluted in IMR32 buffer containing 20 μM nitrendipine (Sigma), and 0.1 mL KCl dissolved in IMR32 buffer, plus Fluo-4 were added (3 μM final concentration, Molecular Probes, Eugene, Oreg.). Final test compound concentrations ranged from about 846 pM to about 17 μM, final nitrendipine concentration was 5 μM, and final KCl concentration was 90 mM. After 1 hour, the cells were washed twice with 0.05 mL of each compound is tested in nitrendipine-containing IMR32 buffer (no KCl or Fluo-4), and then replaced with 0.1 mL of each compound tested in nitrendipine-containing IMR32 buffer. Plates were then transferred to a Fluorimetric Imaging Plate Reader (FLIPR^96, Molecular Devices, Inc., Sunnyvale, Calif.) for assay. The FLIPR measured basal Fluo-4 fluorescence for 315 seconds (i.e., 5 minutes and 15 seconds), then added 0.1 mL KCl agonist dissolved in IMR32 buffer and measured fluorescence for another 45 seconds. Final test compound concentrations on the cells after FLIPR read ranged from about 846 pM to about 17 μM, final nitrendipine concentration was 5 μM, and final KCl concentration was 90 mM. Data were collected over the entire time course and analyzed using Excel, Graph Pad Prism (version 3.02, Graph Pad, San Diego, Calif.), or an in-house non-linear regression analysis software.

T1 sequence (Q00975 whole entry): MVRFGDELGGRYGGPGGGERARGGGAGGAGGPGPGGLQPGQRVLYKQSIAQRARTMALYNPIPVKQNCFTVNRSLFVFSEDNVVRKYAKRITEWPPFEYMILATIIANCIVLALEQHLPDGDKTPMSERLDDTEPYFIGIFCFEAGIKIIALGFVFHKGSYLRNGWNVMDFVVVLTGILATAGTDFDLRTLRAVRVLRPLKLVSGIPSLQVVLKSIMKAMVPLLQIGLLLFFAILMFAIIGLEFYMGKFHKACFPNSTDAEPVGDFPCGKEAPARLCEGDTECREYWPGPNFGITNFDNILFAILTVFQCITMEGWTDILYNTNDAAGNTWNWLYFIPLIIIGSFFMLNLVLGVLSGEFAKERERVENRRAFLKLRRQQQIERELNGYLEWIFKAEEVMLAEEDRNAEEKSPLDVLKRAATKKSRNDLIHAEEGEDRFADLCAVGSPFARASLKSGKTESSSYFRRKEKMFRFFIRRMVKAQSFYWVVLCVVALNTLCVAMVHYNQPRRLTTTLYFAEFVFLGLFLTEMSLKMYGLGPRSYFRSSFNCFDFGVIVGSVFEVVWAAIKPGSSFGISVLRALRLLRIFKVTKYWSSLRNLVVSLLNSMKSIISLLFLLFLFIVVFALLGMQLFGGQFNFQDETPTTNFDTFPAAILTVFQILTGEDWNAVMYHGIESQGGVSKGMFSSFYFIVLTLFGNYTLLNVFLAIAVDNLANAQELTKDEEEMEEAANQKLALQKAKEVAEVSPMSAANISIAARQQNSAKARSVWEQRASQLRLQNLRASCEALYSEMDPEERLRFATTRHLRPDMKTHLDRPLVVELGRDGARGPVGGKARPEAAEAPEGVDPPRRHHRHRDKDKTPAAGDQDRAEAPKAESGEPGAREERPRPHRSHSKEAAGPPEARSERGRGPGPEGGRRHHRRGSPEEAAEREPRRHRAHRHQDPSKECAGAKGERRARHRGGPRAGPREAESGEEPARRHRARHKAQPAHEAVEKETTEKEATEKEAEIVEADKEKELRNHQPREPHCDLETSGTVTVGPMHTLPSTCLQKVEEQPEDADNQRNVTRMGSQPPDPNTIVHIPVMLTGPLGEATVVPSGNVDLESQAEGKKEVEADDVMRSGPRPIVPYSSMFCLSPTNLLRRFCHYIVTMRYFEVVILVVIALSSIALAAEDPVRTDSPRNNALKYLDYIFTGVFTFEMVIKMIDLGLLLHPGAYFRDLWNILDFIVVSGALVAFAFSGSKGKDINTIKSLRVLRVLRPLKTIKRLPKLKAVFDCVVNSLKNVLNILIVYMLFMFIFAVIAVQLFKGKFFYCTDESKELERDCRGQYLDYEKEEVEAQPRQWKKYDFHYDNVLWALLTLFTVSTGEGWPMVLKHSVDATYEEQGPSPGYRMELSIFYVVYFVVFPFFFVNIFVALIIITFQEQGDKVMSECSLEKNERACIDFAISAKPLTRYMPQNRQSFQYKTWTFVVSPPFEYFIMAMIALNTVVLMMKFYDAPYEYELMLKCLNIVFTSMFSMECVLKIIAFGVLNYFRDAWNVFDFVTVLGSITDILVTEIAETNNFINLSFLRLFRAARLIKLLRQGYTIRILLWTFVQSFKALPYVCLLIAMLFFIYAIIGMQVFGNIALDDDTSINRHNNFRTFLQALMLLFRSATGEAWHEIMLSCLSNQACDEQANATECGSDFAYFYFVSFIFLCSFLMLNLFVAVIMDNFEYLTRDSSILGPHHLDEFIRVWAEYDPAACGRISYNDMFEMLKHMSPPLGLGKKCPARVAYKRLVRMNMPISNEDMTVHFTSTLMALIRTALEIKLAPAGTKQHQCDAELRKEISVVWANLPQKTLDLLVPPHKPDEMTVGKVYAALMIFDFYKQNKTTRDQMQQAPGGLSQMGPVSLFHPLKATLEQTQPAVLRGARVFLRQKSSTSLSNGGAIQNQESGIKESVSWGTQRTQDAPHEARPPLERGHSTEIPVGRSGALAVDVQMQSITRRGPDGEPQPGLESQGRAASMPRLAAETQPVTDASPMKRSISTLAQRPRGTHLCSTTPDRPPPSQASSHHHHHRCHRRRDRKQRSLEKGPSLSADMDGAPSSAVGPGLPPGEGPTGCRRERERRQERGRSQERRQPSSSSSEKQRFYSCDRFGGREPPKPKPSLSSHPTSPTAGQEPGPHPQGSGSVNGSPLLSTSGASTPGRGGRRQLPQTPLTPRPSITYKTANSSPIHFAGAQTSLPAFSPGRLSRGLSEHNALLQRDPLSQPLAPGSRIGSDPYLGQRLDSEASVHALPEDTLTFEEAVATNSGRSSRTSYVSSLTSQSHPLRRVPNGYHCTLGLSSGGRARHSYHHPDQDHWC
T1 sequence (P54289 25-956 partner limits assumed): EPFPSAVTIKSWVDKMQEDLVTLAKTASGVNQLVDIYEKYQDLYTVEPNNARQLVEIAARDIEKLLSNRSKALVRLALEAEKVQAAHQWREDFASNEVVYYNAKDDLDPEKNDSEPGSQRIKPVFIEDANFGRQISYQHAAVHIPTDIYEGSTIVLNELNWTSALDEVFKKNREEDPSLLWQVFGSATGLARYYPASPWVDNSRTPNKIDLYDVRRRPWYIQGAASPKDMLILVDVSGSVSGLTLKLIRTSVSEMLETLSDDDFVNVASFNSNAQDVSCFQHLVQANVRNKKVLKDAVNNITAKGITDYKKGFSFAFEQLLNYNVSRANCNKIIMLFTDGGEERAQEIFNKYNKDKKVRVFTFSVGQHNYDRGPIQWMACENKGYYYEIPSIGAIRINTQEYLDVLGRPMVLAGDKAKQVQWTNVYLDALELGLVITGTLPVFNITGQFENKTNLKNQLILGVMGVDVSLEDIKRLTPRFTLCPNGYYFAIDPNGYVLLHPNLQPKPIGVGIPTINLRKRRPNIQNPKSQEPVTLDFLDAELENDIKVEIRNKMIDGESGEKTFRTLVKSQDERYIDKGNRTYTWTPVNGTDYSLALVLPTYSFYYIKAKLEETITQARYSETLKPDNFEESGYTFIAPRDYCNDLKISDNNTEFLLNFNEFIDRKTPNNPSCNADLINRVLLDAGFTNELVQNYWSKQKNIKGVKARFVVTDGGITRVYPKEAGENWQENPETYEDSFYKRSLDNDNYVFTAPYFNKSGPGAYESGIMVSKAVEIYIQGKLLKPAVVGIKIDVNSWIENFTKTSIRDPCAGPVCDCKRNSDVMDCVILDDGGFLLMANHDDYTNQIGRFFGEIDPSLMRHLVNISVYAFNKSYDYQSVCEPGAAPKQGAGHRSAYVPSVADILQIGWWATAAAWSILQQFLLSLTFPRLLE
T1 sequence (P54289 957-1103 partner limits assumed): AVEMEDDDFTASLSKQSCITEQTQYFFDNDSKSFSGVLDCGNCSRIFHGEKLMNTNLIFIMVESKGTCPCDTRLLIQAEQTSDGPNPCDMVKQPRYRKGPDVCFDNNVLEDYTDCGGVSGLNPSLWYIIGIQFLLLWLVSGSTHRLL
T1 sequence (P54284 whole entry partner): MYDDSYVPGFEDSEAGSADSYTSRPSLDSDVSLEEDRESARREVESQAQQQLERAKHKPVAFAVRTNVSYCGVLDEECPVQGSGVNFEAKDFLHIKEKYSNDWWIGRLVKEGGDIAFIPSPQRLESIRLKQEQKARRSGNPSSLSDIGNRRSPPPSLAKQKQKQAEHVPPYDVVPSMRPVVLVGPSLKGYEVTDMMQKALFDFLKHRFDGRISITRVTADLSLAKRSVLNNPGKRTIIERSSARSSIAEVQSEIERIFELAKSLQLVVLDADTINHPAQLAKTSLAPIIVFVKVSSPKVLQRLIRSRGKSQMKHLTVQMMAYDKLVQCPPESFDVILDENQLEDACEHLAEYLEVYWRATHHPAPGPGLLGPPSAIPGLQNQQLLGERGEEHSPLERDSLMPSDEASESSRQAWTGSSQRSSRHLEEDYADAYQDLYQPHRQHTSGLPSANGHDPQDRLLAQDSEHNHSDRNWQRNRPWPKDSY

Question: For `O=C(CC(=O)N1CCC(N(C2CC2)S(=O)(=O)c2cccc(Cl)c2)CC1)Nc1ccc(F)cc1F` [Compound 29, 3-{4-[(3-Chlorobenzenesulfonyl)-cyclopropylamino]-piperidin-1-yl}-N-(2,4-difluorophenyl)-3-oxo-propionamide], which IC50 is on record?
Answer: 8860 nM

Question: How did the IC50 turn out when `O=C(CN1CCC(N(C2CC2)S(=O)(=O)c2cccc(F)c2)CC1)Nc1ccc(F)cc1` [Compound 46, 2-{4-[Cyclopropyl-(3-fluorobenzenesulfonyl)amino]-piperidin-1-yl}-N-(4-fluorophenyl)acetamide] was run?
Answer: 2030 nM

Question: With `CC(C)N(C1CCN(C(=O)CCNc2ccc(C#N)cc2)CC1)S(=O)(=O)c1cccc(C(F)(F)F)c1` [N-{1-[3-(4-cyano-phenylamino)-propionyl]-piperidin-4-yl}-N-isopropyl-3-trifluoromethyl-benzenesulfonamide] as the compound, how does the IC50 read?
Answer: 1390 nM

Question: Which IC50 does the source give for `O=C(CN1CCC(N(C2CC2)S(=O)(=O)c2cccc(Cl)c2)CC1)Nc1cc(C(F)(F)F)cc(C(F)(F)F)c1` [Compound 66, N-(3,5-Bis-trifluoromethylphenyl)-2-{4-[(3-chlorobenzenesulfonyl)-cyclopropylamino]-piperidin-1-yl}-acetamide] here?
Answer: 2530 nM

Question: Which IC50 does the source give for `O=C(CN1CCC(N(C2CC2)S(=O)(=O)c2cccc(C(F)(F)F)c2)CC1)Nc1cc(C(F)(F)F)ccc1Cl` [Compound 77, N-(2-Chloro-5-trifluoromethylphenyl)-2-{4-[cyclopropyl-(3-trifluoromethylbenzenesulfonyl)amino]-piperidin-1-yl}-acetamide] here?
Answer: 6630 nM

Question: `CC(C)N(C1CCN(C(=O)CCNc2cccc(F)c2)CC1)S(=O)(=O)c1cccc(C(F)(F)F)c1` [N-{1-[3-(3-fluoro-phenylamino)-propionyl]-piperidin-4-yl}-N-isopropyl-3-trifluoromethyl-benzenesulfonamide] was tested. Which IC50 did it give?
Answer: 1040 nM

Question: Which IC50 does the source give for `O=C(CN1CCC(NS(=O)(=O)c2cccc(C(F)(F)F)c2)CC1)Nc1ccc(C(F)(F)F)c(C(F)(F)F)c1` [N-(3,4-bis-trifluoromethylphenyl)-2-{4-[(3-trifluoromethylbenzenesulfonyl)amino]-piperidin-1-yl}-acetamide] here?
Answer: 1220 nM

Question: How did the IC50 turn out when `O=C(CC(=O)N1CCC(N(C2CC2)S(=O)(=O)c2cccc(C(F)(F)F)c2)CC1)Nc1ccc(F)cc1F` [Compound 27, 3-{4-[Cyclopropyl-(3-trifluoromethylbenzenesulfonyl)amino]-piperidin-1-yl}-N-(2,4-difluorophenyl)-3-oxo-propionamide] was run?
Answer: 1330 nM

Question: With `CC(C)N(C1CCN(C(=O)CC(N)c2cccs2)CC1)S(=O)(=O)c1cccc(C(F)(F)F)c1` (centres unmarked) [N-[1-(3-amino-3-thiophen-2-yl-propionyl)-piperidin-4-yl]-N-isopropyl-3-trifluoromethyl-benzenesulfonamide] as the compound, how does the IC50 read?
Answer: 1100 nM

Question: With `O=C(CNCc1ccc(F)cc1)N1CCC(N(C2CC2)S(=O)(=O)c2ccccc2)CC1` [Compound 98, N-Cyclopropyl-N-{1-[2-(4-fluorobenzylamino)acetyl]-piperidin-4-yl}-benzenesulfonamide] as the compound, how does the IC50 read?
Answer: 2670 nM

Question: Which IC50 does the source give for `CC(C)NC(=O)C(=O)N1CCC(N(C2CC2)S(=O)(=O)c2cccc(C(F)(F)F)c2)CC1` [2-{4-[cyclopropyl-(3-trifluoromethylbenzenesulfonyl)-amino]-piperidin-1-yl}-N-isopropyl-2-oxo-acetamide] here?
Answer: 3200 nM

Question: With `CC(C)N(C1CCN(C(=O)C(N)Cc2cccc3ccccc23)CC1)S(=O)(=O)c1cccc(C(F)(F)F)c1` (centres unmarked) [N-[1-(2-amino-3-naphthalen-1-yl-propionyl)-piperidin-4-yl]-N-isopropyl-3-trifluoromethyl-benzenesulfonamide] as the compound, how does the IC50 read?
Answer: 2550 nM

Question: Which IC50 does the source give for `CC(C)N(C1CCN(C(=O)C2(N)CCOCC2)CC1)S(=O)(=O)c1cccc(C(F)(F)F)c1` [N-[1-(4-amino-tetrahydro-pyran-4-carbonyl)-piperidin-4-yl]-N-isopropyl-3-trifluoromethyl-benzenesulfonamide] here?
Answer: 8330 nM

Question: For `CCC(NC1CC1)C(=O)N1CCC(N(C(C)C)S(=O)(=O)c2cccc(C(F)(F)F)c2)CC1` (centres unmarked) [Compound 92, N-[1-(2-Cyclopropylaminobutyryl)-piperidin-4-yl]-N-isopropyl-3-trifluoromethylbenzenesulfonamide], which IC50 is on record?
Answer: 5270 nM
